In patent US12187709B2 (Genentech, Inc., priority 2021, dated 2025):
pIC50, pKd: −log10 of the molar value.

What was measured:
[1] = target: Human Cbl-b (residues 40-426) (Homo sapiens (Human), UniProt Q13191); assay: Cbl-b SPR assay; format: binding; conditions: for Fold of selectivity: C-cbl SPR Kd vs Cbl-b SPR Kd; for pKd: SPR, 20° C.
In short: (§1)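 Where a chaser compound was used, % compound bound was calculated as (1−(RUT/RUT0))*100 relative to a prior chaser injection and fitted to a single exponential for kd. The single cycle titration (max 500 nM) was then fitted with kd held fixed.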

Cbl-b = Cbl-b (Homo sapiens (Human), UniProt Q13191); assay: Cbl-b LCK Ub TR-FRET assay (Cbl-b Lck HTRF); format: biochemical; conditions: for pIC50: Cbl-b LCK Ub TR-FRET; for fold-selectivity (Cbl-b over C-cbl): ratio C-cbl Lck HTRF IC50 / Cbl-b Lck HTRF IC50
Chain of Cbl-b (Q13191 40-426): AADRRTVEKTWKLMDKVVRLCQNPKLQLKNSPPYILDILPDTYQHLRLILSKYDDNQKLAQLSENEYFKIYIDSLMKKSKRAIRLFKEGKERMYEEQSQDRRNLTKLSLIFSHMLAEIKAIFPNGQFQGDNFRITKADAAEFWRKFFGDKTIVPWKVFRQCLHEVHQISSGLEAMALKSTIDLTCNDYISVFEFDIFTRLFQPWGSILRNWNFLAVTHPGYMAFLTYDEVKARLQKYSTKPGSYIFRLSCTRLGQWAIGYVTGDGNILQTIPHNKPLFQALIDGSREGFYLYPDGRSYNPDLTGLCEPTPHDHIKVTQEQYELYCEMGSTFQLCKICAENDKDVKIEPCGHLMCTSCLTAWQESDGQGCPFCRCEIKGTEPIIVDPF
In short: (§2)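 Detection reagents added, brief spin, 20 min RT. IC50 fit normalized to no-LCK (low) and DMSO (high) controls.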

c-Cbl = c-Cbl (Homo sapiens (Human), UniProt P22681); assay: C-Cbl LCK Ub TR-FRET assay (C-cbl Lck HTRF); format: biochemical
Chain of c-Cbl (P22681 47-435): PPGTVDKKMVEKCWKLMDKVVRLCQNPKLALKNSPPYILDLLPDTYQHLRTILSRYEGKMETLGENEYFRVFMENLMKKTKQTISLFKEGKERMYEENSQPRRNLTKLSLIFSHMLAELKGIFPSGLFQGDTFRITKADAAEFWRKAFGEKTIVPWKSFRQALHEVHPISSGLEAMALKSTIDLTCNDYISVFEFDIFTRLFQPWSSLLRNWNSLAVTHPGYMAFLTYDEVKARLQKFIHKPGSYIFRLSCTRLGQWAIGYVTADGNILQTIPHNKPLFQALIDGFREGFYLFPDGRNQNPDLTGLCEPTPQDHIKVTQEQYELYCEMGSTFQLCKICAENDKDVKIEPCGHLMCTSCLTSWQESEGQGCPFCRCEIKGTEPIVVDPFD
In short: as §2

c-Cbl (residues 47-435) = c-Cbl (residues 47-435) (Homo sapiens (Human), UniProt P22681); assay: c-Cbl SPR assay; format: binding; conditions: 20° C.
Chain of c-Cbl (residues 47-435) (P22681 47-435): as above
In short: as §1

Chain of Human Cbl-b (residues 40-426) (Q13191 40-426): as the sequence (Q13191 40-426) above

Row | Compound | Fold of selectivity [1] | pKd [1] | pIC50 (Cbl-b) | fold-selectivity (Cbl-b over C-cbl) (Cbl-b) | pIC50 (c-Cbl) | pKd (c-Cbl (residues 47-435))
1 | Cn1cnnc1C1(c2cccc(N3Cc4c(cc(CNC5(C)CCC5)cc4C(F)(F)F)C3=O)c2)CC2(CN(CC(F)(F)F)C2)C1 [Compound 96, 2-(3-(6-(4-methyl-4H-1,2,4-triazol-3-yl)-2-(2,2,2-trifluoroethyl)-2-azaspiro[3.3]heptan-6-yl)phenyl)-6-(((1-methylcyclobutyl)amino)methyl)-4-(trifluoromethyl)-isoindolin-1-one] | 4.1× | 5.37 | 5.35 | 3.7x | 4.80 | 4.74
2 | Cn1cnnc1[C@]1(c2cccc(N3Cc4c(cc(CNC5(C)CCC5)cc4C(F)(F)F)C3=O)c2)C[C@H](CO)C1.O=CO [Compound 99, 2-(3-((1s,3s)-3-(hydroxymethyl)-1-(4-methyl-4H-1,2,4-triazol-3-yl)cyclobutyl)phenyl)-6-(((1-methylcyclobutyl)amino)methyl)-4-(trifluoromethyl)isoindolin-1-one formate] | 4.8× | 7.32 | 7.07 | 3.7x | 6.49 | 6.64
3 | Cn1cnnc1[C@]1(c2cccc(N3Cc4c(cc(CNC5(C)CCC5)cc4C(F)(F)F)C3=O)c2)C[C@@H](CO)C1.O=CO [Compound 100, 2-(3-((1r,3r)-3-(hydroxymethyl)-1-(4-methyl-4H-1,2,4-triazol-3-yl)cyclobutyl)phenyl)-6-(((1-methylcyclobutyl)amino)methyl)-4-(trifluoromethyl)isoindolin-1-one formate] | 12× | 8.24 | 7.60 | 3.5x | 7.07 | 7.14
4 | Cn1cnnc1C1(c2cccc(N3Cc4c(cc(CNC5(C)CCC5)cc4C(F)(F)F)C3=O)c2)CN(C2COC2)C1 [Compound 111, 2-(3-(3-(4-methyl-4H-1,2,4-triazol-3-yl)-1-(oxetan-3-yl)azetidin-3-yl)phenyl)-6-(((1-methylcyclobutyl)amino)methyl)-4-(trifluoromethyl)isoindolin-1-one] | 8.6× | 5.44 | 5.31 | 4.1x | 4.70 | 4.51
5 | Cn1cnnc1C1(c2cccc(N3Cc4c(cc(CNC5(C)CCC5)cc4C(F)(F)F)C3=O)c2)CN(S(C)(=O)=O)C1 [Compound 113, 2-(3-(3-(4-methyl-4H-1,2,4-triazol-3-yl)-1-(methylsulfonyl)azetidin-3-yl)phenyl)-6-(((1-methylcyclobutyl)amino)methyl)-4-(trifluoromethyl)isoindolin-1-one] | 13× | 5.57 | 5.46 | 5.3x | 4.74 | 4.47
6 | CO[C@H]1C[C@@](c2cccc(N3Cc4c(cc(CNC5(C)CCC5)cc4C(F)F)C3=O)c2)(c2nncn2C)C1 [Compound 116, 4-(difluoromethyl)-2-(3-((1s,3s)-3-methoxy-1-(4-methyl-4H-1,2,4-triazol-3-yl)cyclobutyl)phenyl)-6-(((1-methylcyclobutyl)amino)methyl)isoindolin-1-one] | 15× | 8.09 | 7.60 | 6.0x | 6.82 | 6.96

Now from value to compound:

Row | Fold of selectivity [1] | pKd [1] | pIC50 (Cbl-b) | fold-selectivity (Cbl-b over C-cbl) (Cbl-b) | pIC50 (c-Cbl) | pKd (c-Cbl (residues 47-435)) | Compound
7 | 4.9× | 9.07 | 8.04 | 1.1x | 8.01 | 8.38 | Cn1cnnc1[C@]1(c2cccc(N3Cc4c(cc(CNC5(C)CCC5)cc4C(F)(F)F)C3=O)c2)C[C@@H](CF)C1 [Compound 101, 2-(3-((1r,3r)-3-(fluoromethyl)-1-(4-methyl-4H-1,2,4-triazol-3-yl)cyclobutyl)phenyl)-6-(((1-methylcyclobutyl)amino)methyl)-4-(trifluoromethyl)isoindolin-1-one]
8 | 4.7× | 9.08 | 8.14 | 1.5x | 7.96 | 8.41 | Cn1cnnc1[C@]1(c2cccc(N3Cc4c(cc(CNC5(C)CCC5)cc4C(F)(F)F)C3=O)c2)C[C@H](CF)C1 [Compound 102, 2-(3-((1s,3s)-3-(fluoromethyl)-1-(4-methyl-4H-1,2,4-triazol-3-yl)cyclobutyl)phenyl)-6-(((1-methylcyclobutyl)amino)methyl)-4-(trifluoromethyl)isoindolin-1-one]
9 | 7.8× | 8.80 | 7.85 | 1.7x | 7.59 | 7.92 | COC[C@H]1C[C@@](c2cccc(N3Cc4c(cc(CNC5(C)CCC5)cc4C(F)(F)F)C3=O)c2)(c2nncn2C)C1 [Compound 103, 2-(3-((1s,3s)-3-(methoxymethyl)-1-(4-methyl-4H-1,2,4-triazol-3-yl)cyclobutyl)phenyl)-6-(((1-methylcyclobutyl)amino)methyl)-4-(trifluoromethyl)isoindolin-1-one]
10 | 9.1× | 8.80 | 7.89 | 1.4x | 7.77 | 7.82 | COC[C@H]1C[C@](c2cccc(N3Cc4c(cc(CNC5(C)CCC5)cc4C(F)(F)F)C3=O)c2)(c2nncn2C)C1 [Compound 104, 2-(3-((1r,3r)-3-(methoxymethyl)-1-(4-methyl-4H-1,2,4-triazol-3-yl)cyclobutyl)phenyl)-6-(((1-methylcyclobutyl)amino)methyl)-4-(trifluoromethyl)isoindolin-1-one]
11 | 21× | 8.28 | 7.77 | 9.2x | 6.80 | 6.92 | Cn1cnnc1[C@]1(c2cccc(N3Cc4c(cc(CNC5(C)CCC5)cc4C(F)(F)F)C3=O)c2)C[C@]2(CCO2)C1 [Compound 108, 2-(3-((4r,6r)-6-(4-methyl-4H-1,2,4-triazol-3-yl)-1-oxaspiro[3.3]heptan-6-yl)phenyl)-6-(((1-methylcyclobutyl)amino)methyl)-4-(trifluoromethyl)isoindolin-1-one]
12 | 7.0× | 7.68 | 7.33 | 4.6x | 6.66 | 6.85 | Cn1cnnc1[C@]1(c2cccc(N3Cc4c(cc(CNC5(C)CCC5)cc4C(F)(F)F)C3=O)c2)C[C@@]2(CCO2)C1 [Compound 109, 2-(3-((4s,6s)-6-(4-methyl-4H-1,2,4-triazol-3-yl)-1-oxaspiro[3.3]heptan-6-yl)phenyl)-6-(((1-methylcyclobutyl)amino)methyl)-4-(trifluoromethyl)isoindolin-1-one]
13 | 7.2× | 5.96 | 5.85 | 6.5x | 5.03 | 5.12 | Cn1cnnc1C1(c2cccc(N3Cc4c(cc(CNC5(C)CCC5)cc4C(F)(F)F)C3=O)c2)CN(CC(F)(F)F)C1 [Compound 110, 2-(3-(3-(4-methyl-4H-1,2,4-triazol-3-yl)-1-(2,2,2-trifluoroethyl)azetidin-3-yl)phenyl)-6-(((1-methylcyclobutyl)amino)methyl)-4-(trifluoromethyl)isoindolin-1-one]
